These results are taken from article PMC4197335, “Cancer-Selective Targeting of the NF-κB Survival Pathway with GADD45β/MKK7 Inhibitors” (Cancer Cell, 2014).

The target of one data set is T1, GADD45β/MKK7 complex (Homo sapiens, UniProt O14733).
T1 construct: Full-length human (h)MKK7 was expressed as a protein fused to an N-terminal GST tag (GST-MKK7); made in house
T1 sequence (O14733 1-419): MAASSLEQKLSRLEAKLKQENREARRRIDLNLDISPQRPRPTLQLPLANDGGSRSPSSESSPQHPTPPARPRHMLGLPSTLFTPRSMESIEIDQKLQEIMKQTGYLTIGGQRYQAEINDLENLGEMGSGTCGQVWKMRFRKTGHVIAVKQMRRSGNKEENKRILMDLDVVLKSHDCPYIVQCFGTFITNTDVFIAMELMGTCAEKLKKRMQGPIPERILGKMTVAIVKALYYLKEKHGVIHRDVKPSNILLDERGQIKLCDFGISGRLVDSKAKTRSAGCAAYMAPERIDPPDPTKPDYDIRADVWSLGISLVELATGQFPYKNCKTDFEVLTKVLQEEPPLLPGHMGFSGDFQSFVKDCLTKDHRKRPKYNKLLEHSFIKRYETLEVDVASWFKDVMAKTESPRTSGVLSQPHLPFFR
Put plainly: ELISA GADD45β/MKK7 competition assay. Format: binding. (In general: ELISA stands for enzyme-linked immunosorbent assay.)

The next data set has as its target T2, GST-hMKK7 (Homo sapiens, UniProt O14733).
T2 construct: Full-length human (h)MKK7 was expressed as a protein fused to an N-terminal GST tag (GST-MKK7); made in house
T2 sequence (O14733 1-419): T1 sequence (O14733 1-419)
As to the kind of experiment: tryptophan fluorescence quenching analysis. Format: binding. The settings on record: DTP3/MKK7 interaction. As to the method:
The stoichiometry and KD value of the DTP3/MKK7 interaction were determined by tryptophan fluorescence quenching analysis, after fitting the fluorescence data with a nonlinear regression algorithm, as described by [Williamson (2013)]. Additional details are provided in Supplemental Experimental Procedures, along with a description of the methods used for CD and MALDI-TOF mass spectrometry analyses and the pull-down of MKK7 from cells with DTP3.
Spectrofluorimetric Analyses
The stoichiometry of the interaction of DTP3 with MKK7 was determined by using tryptophan f luorescence quenching analysis. Spectra were acquired with a Cary Eclipse Spectrof luorimeter analyzer (Varian Inc.), equipped with Peltier thermostating system, and a 1- cm quartz cuvette. The analyses were carried out using 1. 25 μM of GST -hMKK7 or GST dissolved in 10 mM of phosphate buff er, pH 7.5, and increasing concentrations of DTP3 or control SCRB D-peptide dissolved in the same buffer. […] The fluorescence values recorded at 333 nm were extracted, transformed to -ΔFluorescence and, then, plotted against the peptide concentration.
Fluorescence data were f itted using a single- site binding model (equation 1): […]
binding, was a highly appropriate model to account for the measured f lorescence trends, resulting in a R square (R2) of 0.985 and a chi square (X2) of 1.436. […]

Data set [1] in a line: distribution coefficient (LogD). Format: physicochemical. The text has this: Pharmacophore Model Building
The pharmacophore predictive
Broad- Panel Kinase Profiling
according to in-house protocols therein.
Pharmacokinetic Anal yses
In vitro pharmacok inetic assays were […]

As a reminder, the inhibition is the change of the read-out against control, counted positive when it falls. In general, Kd refers to the free concentration of one partner at which half of the binding sites on the other are occupied at equilibrium, for simple one-to-one binding. As a reminder, the logD is the decadic logarithm of the distribution of all forms, ionised or not, between an organic phase and buffer at a given pH. The low end stands for lower lipophilicity, the high end for higher lipophilicity. Consider `CC(=O)N[C@H](Cc1ccc(O)cc1)C(=O)N[C@H](CCCNC(=N)N)C(=O)N[C@H](Cc1ccccc1)C(N)=O` [DTP3, Ac-YRF-NH2], for which, at GADD45β/MKK7 complex (Table S4, read-out: IC50s (ELISA)), the IC50 is 0.16 nM. In addition, the inhibition at 0.042 µM on GADD45β/MKK7 complex (read-out: % inhibition of (ELISA)) turned out to be 94%. For the same compound, the Kd at GST-hMKK7 turned out to be 64.8 ± 6.22 nM. Also, the log distribution coefficient (logD) in data set [1] turned out to be 1.19 ± 0.29.
